Test results: patent US9029337B2, “Modulation of factor 7 expression” (Isis Pharmaceuticals, Inc., priority 2007, dated 2015)
Strand notation (5' to 3'): a small letter for the sugar, then the base; units joined by * are phosphorothioate-linked, units joined directly phosphodiester-linked; [ ] holds rarer units or linkages, { } end groups; capitals alone tell only the bases. e = 2'-O-(2-methoxyethyl) (MOE); [5mC] = 5-methylcytosine; d = 2'-deoxy (DNA)

These substances were tested on human Factor 7 mRNA (assay: Antisense inhibition of human Factor 7 mRNA in HepB3 cells, 50 nM antisense oligonucleotide, lipofectin). Conditions: Table 1, 50 nM, lipofectin, approximately 24 hours, relative to untreated control cells.
Assay type: cell-based
How it was run: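 Readout is percent reduction of Factor 7 message compared with untreated cells, after correction for total RNA content quantified by RIBOGREEN®. Cultures were seeded at 4,000 cells per well and treated for about 24 hours before RNA extraction.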

| Substance | % Inhibition |
| --- | --- |
| 407953 (antisense eA*e[5mC]*eA*eT*e[5mC]*d[5mC]*dA*dA*dT*dT*d[5mC]*d[5mC]*dA*d[5mC]*dA*eG*eG*eA*eT*e[5mC]) [compound 407953] | 20% |
| 407920 (antisense eT*eG*eA*eG*e[5mC]*dG*d[5mC]*dA*dT*dG*dA*dG*d[5mC]*dT*dT*eT*eT*eG*e[5mC]*eA) [compound 407920] | 65% |
| 407908 (antisense e[5mC]*e[5mC]*e[5mC]*e[5mC]*eA*dG*d[5mC]*d[5mC]*dG*d[5mC]*dT*dG*dA*d[5mC]*d[5mC]*eA*eA*eT*eG*eA) [compound 407908] | 47% |
| 407960 (antisense eG*eT*eG*e[5mC]*e[5mC]*d[5mC]*dA*dG*dG*dA*d[5mC]*dG*dG*d[5mC]*d[5mC]*e[5mC]*eT*eG*e[5mC]*eA) [compound 407960] | 53% |
| 407891 (antisense e[5mC]*eA*eT*eG*eG*dA*d[5mC]*dT*dT*dG*dA*dG*dG*d[5mC]*dA*e[5mC]*eA*e[5mC]*eT*eG) [compound 407891] | 66% |
| 407633 (antisense eG*e[5mC]*eA*eG*eG*d[5mC]*dA*dG*dT*d[5mC]*d[5mC]*dT*dG*dG*dG*eT*e[5mC]*eA*eT*e[5mC]) [compound 407633] | 71% |
| 407929 (antisense eG*e[5mC]*eA*eG*eA*dG*d[5mC]*dA*dG*d[5mC]*dA*dG*d[5mC]*d[5mC]*dT*eG*eA*eG*eG*e[5mC]) [compound 407929] | 53% |
| 403090 (antisense eA*eG*eT*e[5mC]*e[5mC]*dT*dG*dG*dG*dT*d[5mC]*dA*dT*d[5mC]*dA*eG*e[5mC]*e[5mC]*eG*eG) [compound 403090] | 69% |
| 407904 (antisense eG*eA*eA*eA*e[5mC]*dA*dG*dT*dG*dG*dG*d[5mC]*d[5mC]*dG*d[5mC]*eG*eG*eA*eG*eA) [compound 407904] | 83% |
| 407655 (antisense eA*eG*eA*eG*eT*dG*d[5mC]*dA*dG*d[5mC]*dT*dT*dG*d[5mC]*d[5mC]*eA*eG*eG*eT*e[5mC]) [compound 407655] | 28% |
| 407945 (antisense eA*eA*eT*e[5mC]*eA*dT*dG*dG*dG*d[5mC]*dA*dA*d[5mC]*d[5mC]*d[5mC]*eA*eG*eT*eG*eG) [compound 407945] | 56% |
| 407596 (antisense eG*eA*eG*eG*e[5mC]*d[5mC]*d[5mC]*d[5mC]*dG*dG*d[5mC]*dT*dT*d[5mC]*d[5mC]*eA*e[5mC]*eG*eG*e[5mC]) [compound 407596] | 61% |
| 407950 (antisense eA*eG*e[5mC]*eT*eT*d[5mC]*d[5mC]*dA*dT*dG*dT*dG*dA*dG*dG*eG*eT*eT*e[5mC]*eA) [compound 407950] | 58% |
| 407892 (antisense e[5mC]*e[5mC]*e[5mC]*e[5mC]*eA*dT*dT*d[5mC]*dT*dG*dG*d[5mC]*dA*dT*dG*eG*eA*e[5mC]*eT*eT) [compound 407892] | 68% |
| 407940 (antisense eT*eG*eT*eG*eA*dA*dG*d[5mC]*dT*dG*dG*dG*dA*dA*dG*e[5mC]*eA*eG*eG*eT) [compound 407940] | 62% |
| 407615 (antisense eG*eA*e[5mC]*eA*e[5mC]*d[5mC]*d[5mC]*d[5mC]*dG*dT*d[5mC]*dT*dG*d[5mC]*d[5mC]*eA*eG*e[5mC]*eA*eG) [compound 407615] | 65% |

Same assay, conditions: Table 6, 50 nM, lipofectin, approximately 24 hours

| Substance | % Inhibition |
| --- | --- |
| 422118 (antisense e[5mC]*eG*eG*eA*eA*dG*dA*dA*dG*dG*dG*dA*d[5mC]*dG*dG*eA*eA*eG*eG*eT) [compound 422118] | 15% |
| 422198 (antisense eG*eT*eT*dA*d[5mC]*dT*dG*dA*dG*d[5mC]*dG*d[5mC]*dG*dG*dA*dA*dG*eA*eA*eG) [compound 422198] | 50% |
| 422120 (antisense e[5mC]*eG*e[5mC]*eG*eG*dA*dA*dG*dA*dA*dG*dG*dG*dA*d[5mC]*eG*eG*eA*eA*eG) [compound 422120] | 40% |
| 422275 (antisense eG*eT*dT*dA*d[5mC]*dT*dG*dA*dG*d[5mC]*dG*d[5mC]*dG*dG*dA*eA*eG*eA*eA*eG) [compound 422275] | 42% |

Same assay, conditions: Table 13 (microwalk), 50 nM, lipofectin, approximately 24 hours

| Substance | % Inhibition |
| --- | --- |
| 422153 (antisense e[5mC]*eA*eT*dG*d[5mC]*dA*dT*dG*dG*dT*dG*dA*dT*dG*d[5mC]*dT*dT*e[5mC]*eT*eG) [compound 422153] | 67% |

Same assay, conditions: gapmers targeted to nucleobases 4868 to 4899 of SEQ ID NO: 1, Table 8

| Substance | % Inhibition of human Factor 7 mRNA levels |
| --- | --- |
| 422219 (antisense e[5mC]*e[5mC]*eG*dA*dG*dT*dT*d[5mC]*dT*dG*d[5mC]*dA*dG*dG*dA*dG*d[5mC]*eG*eG*e[5mC]) [compound 422219] | 65% |
| 422148 (antisense eG*eG*eA*eG*e[5mC]*d[5mC]*d[5mC]*dG*dA*dG*dT*dT*d[5mC]*dT*dG*e[5mC]*eA*eG*eG*eA) [compound 422148] | 57% |
| 416509 (antisense eA*eG*eG*eA*eG*d[5mC]*d[5mC]*d[5mC]*dG*dA*dG*dT*dT*d[5mC]*dT*eG*e[5mC]*eA*eG*eG) [compound 416509] | 60% |
| 422214 (antisense eT*eT*e[5mC]*dT*dG*d[5mC]*dA*dG*dG*dA*dG*d[5mC]*dG*dG*d[5mC]*d[5mC]*dT*eA*eA*eA) [compound 422214] | 60% |

Same assay, conditions: lipofectin, 50 nM antisense oligonucleotide, approximately 24 hours, Factor 7 mRNA by real-time RT-PCR (RTS 2927), relative to untreated control

| Substance | % Inhibition |
| --- | --- |
| 416486 (antisense eA*eT*eT*eG*eA*d[5mC]*dA*dA*dG*dG*dG*d[5mC]*dT*dG*dT*eG*eG*e[5mC]*eA*eG) [compound 416486] | 12% |
| 416443 (antisense eG*eA*eG*eG*e[5mC]*dA*dG*dA*dA*dG*d[5mC]*dA*dG*dA*dT*eA*eT*eA*eG*eG) [compound 416443] | 17% |
| 416568 (antisense e[5mC]*eA*eT*eT*eG*dT*dG*d[5mC]*d[5mC]*dT*dG*dG*d[5mC]*dA*d[5mC]*eA*e[5mC]*eA*eG*eG) [compound 416568] | 14% |
| 416540 (antisense eG*eG*eA*e[5mC]*eT*dG*dG*dT*dG*dT*d[5mC]*dA*dT*d[5mC]*dT*eG*eG*eG*eA*e[5mC]) [compound 416540] | 38% |
| 416536 (antisense e[5mC]*eG*eG*eG*eA*dA*dG*dG*d[5mC]*d[5mC]*dT*dG*d[5mC]*d[5mC]*d[5mC]*eT*eG*e[5mC]*eA*eG) [compound 416536] | 23% |
| 416509 (antisense eA*eG*eG*eA*eG*d[5mC]*d[5mC]*d[5mC]*dG*dA*dG*dT*dT*d[5mC]*dT*eG*e[5mC]*eA*eG*eG) [compound 416509] | 56% |
| 416501 (antisense e[5mC]*eT*eG*e[5mC]*e[5mC]*d[5mC]*dT*dT*d[5mC]*d[5mC]*dA*d[5mC]*d[5mC]*dA*dA*eG*eT*eT*eT*eA) [compound 416501] | 18% |
| 416437 (antisense eA*eG*eG*e[5mC]*eA*d[5mC]*dA*d[5mC]*dT*dG*dG*dT*d[5mC]*d[5mC]*d[5mC]*e[5mC]*eA*eT*e[5mC]*eA) [compound 416437] | 52% |
| 416541 (antisense e[5mC]*e[5mC]*eA*e[5mC]*e[5mC]*d[5mC]*dT*dT*dG*dG*dT*dG*d[5mC]*d[5mC]*d[5mC]*eA*eG*eA*eT*e[5mC]) [compound 416541] | 53% |
| 416459 (antisense eT*eG*eG*eT*e[5mC]*dA*dG*dT*dG*dA*dG*dG*dA*d[5mC]*d[5mC]*eA*e[5mC]*eG*eG*eG) [compound 416459] | 23% |
| 416492 (antisense eG*eG*eA*eT*e[5mC]*dA*dT*dT*d[5mC]*dT*dG*dG*d[5mC]*d[5mC]*d[5mC]*eT*eG*eA*eG*e[5mC]) [compound 416492] | 13% |

Same assay, conditions: oligonucleotides targeted to nucleobases 13760 to 13789 of SEQ ID NO: 1 (Table 10)

| Substance | % Inhibition (human Factor 7 mRNA levels) |
| --- | --- |
| 422184 (antisense eT*eG*e[5mC]*dG*d[5mC]*d[5mC]*dA*d[5mC]*d[5mC]*d[5mC]*dG*d[5mC]*d[5mC]*dG*dG*d[5mC]*dT*e[5mC]*eT*eG) [compound 422184] | 55% |
| 422112 (antisense e[5mC]*e[5mC]*eA*e[5mC]*e[5mC]*d[5mC]*dG*d[5mC]*d[5mC]*dG*dG*d[5mC]*dT*d[5mC]*dT*eG*e[5mC]*eT*e[5mC]*eA) [compound 422112] | 61% |
| 422176 (antisense e[5mC]*e[5mC]*eG*d[5mC]*d[5mC]*dG*dG*d[5mC]*dT*d[5mC]*dT*dG*d[5mC]*dT*d[5mC]*dA*dT*e[5mC]*e[5mC]*e[5mC]) [compound 422176] | 52% |
| 422108 (antisense e[5mC]*e[5mC]*eG*e[5mC]*e[5mC]*dG*dG*d[5mC]*dT*d[5mC]*dT*dG*d[5mC]*dT*d[5mC]*eA*eT*e[5mC]*e[5mC]*e[5mC]) [compound 422108] | 69% |

Same assay, conditions: oligonucleotides targeted to nucleobases 14707 to 14732 of SEQ ID NO: 1 (Table 11)

| Substance | % Inhibition (human Factor 7 mRNA levels) |
| --- | --- |
| 422206 (antisense e[5mC]*eA*eG*d[5mC]*dA*dG*d[5mC]*d[5mC]*dT*dG*dA*dG*dG*d[5mC]*d[5mC]*dA*dG*e[5mC]*eA*eG) [compound 422206] | 65% |
| 422132 (antisense eG*e[5mC]*eA*eG*e[5mC]*d[5mC]*dT*dG*dA*dG*dG*d[5mC]*d[5mC]*dA*dG*e[5mC]*eA*eG*eA*eT) [compound 422132] | 54% |
| 422282 (antisense eA*eG*d[5mC]*dA*dG*d[5mC]*d[5mC]*dT*dG*dA*dG*dG*d[5mC]*d[5mC]*dA*eG*e[5mC]*eA*eG*eA) [compound 422282] | 48% |

Same assay, conditions: oligonucleotides targeted to nucleobases 15098 to 15122 of SEQ ID NO: 1 (Table 12)

| Substance | % Inhibition (human Factor 7 mRNA levels) |
| --- | --- |
| 422211 (antisense eA*e[5mC]*eA*dG*d[5mC]*dA*d[5mC]*dA*d[5mC]*dA*dT*dG*dG*dA*dG*dT*d[5mC]*eA*eG*e[5mC]) [compound 422211] | 42% |
| 422210 (antisense e[5mC]*eA*eG*d[5mC]*dA*d[5mC]*dA*d[5mC]*dA*dT*dG*dG*dA*dG*dT*d[5mC]*dA*eG*e[5mC]*eA) [compound 422210] | 25% |
